Data: patent US12559506B2, “Indazole based compounds and associated methods of use” (Arvinas Operations, Inc., priority 2021, dated 2026)

Experiments:
wildtype LRRK2 = target: T1, wildtype LRRK2 (Homo sapiens, UniProt Q5S007); assay: LRRK2 degradation assay, HiBit-tagged wildtype LRRK2 expressed from plasmid in HEK293 cells (Nano-Glo Dual-Luciferase); format: cell-based; details: HiBit-tagged wildtype LRRK2 in HEK293 cells, 24 hours; for Dmax: read-out: **WT Dmax (%); for DC50: read-out: *WT DC50
T1 construct: expressed in transfected cells; host or cells: HEK293 (ATCC CRL-1573), transient transfection, mammalian expression vector with ubiquitin promoter
Text: (§1) Exemplary Assay for Testing LRRK2 Degradation Driven by Exemplary Hetero-Bifunctional Compounds Designed to Target LRRK2
(§2) The assay measures the degradation of wildtype and G2019S LRRK2 tagged with a HiBit tag on the C-terminus of the protein that was expressed from a mammalian expression vector, driven by the ubiquitin promoter in HEK293 cells. Each compound dose-response was repeated on two separate days, on three separate plates each day.
(§3) Plasmid Preparation. Transfection mixes were assembled as follows and incubated for 30 minutes at room temperature. In a 15 mL tube, 5.25 mL Opti-MEM (no additions) was mixed with 17 μL Firefly Luciferase plasmid at 1 μg/μL and 158 μL WT plasmid DNA at 1 μg/μL (175 μg total DNA) were mixed by flicking. In a new 15 mL tube, 5.25 mL OptiMEM was mixed with 17 μL Firefly Luciferase plasmid at 1 μg/μL and 158 μL G2019S plasmid DNA at 1 μg/μL (175 μg total DNA) were mixed by flicking. X-tremeGene HP was mixed thoroughly using a vortex. Next, 175 μL was added to each tube and flicked to mix. Both tubes were left to incubate for 30 minutes at room temperature.
(§4) While the transfection mixes were incubating, HEK293 cells (acquired from ATCC; ATCC CRL-1573) were harvested with trypsin. Once cells are detached, the cells were resuspended in 12 mL OptiMEM+5% FBS and transferred to a 50 mL tube. The cells were mixed well and counted. Using OptiMEM+5% FBS, the cells were diluted in two 250 mL conical tubes at 0.71×10^6 cells/mL in 70 mL. One tube was labeled “WT” and the other “G2019S”. The WT and G2019S transfection mixes were added dropwise to the corresponding 250 mL tubes. The tubes were mixed first by pipetting then by swirling. The tubes were incubated at room temperature for at least 5 minutes.
(§5) Each tube was swirled before dispensing and after every three plates. Seventy microliters of cells were dispensed with WT or G2019S DNA to seven plates each. Three plates of each were tested with compound plate one (preparation described below) and three plates of each were tested with compound plate two (preparation described below). The first plate from each set served as a “prime” plate and was not used to test compounds. Each plate was incubated in the hood for 10 minutes before placing in the 37° C. incubator for 24 hours.
(§6) Preparation of Compound and Assay Plates. Two compound plates were made using 96 well polypropylene plates. Compounds were made up at 10 mM and were diluted to 1 mM in 30 μL. Each dose response curve included a well of DMSO, as a negative control and for normalization, and a well of 0.5 μM of Compound 4 as a positive control. In addition to seven test compounds, each plate also included a dose response of Compound 4. The compound plates were spun down along at 1200 rpm for 2 minutes.
(§7) The two compound plates were then mixed and 2 μL was diluted in intermediate plates having 248 μL of Opti-Mem in each well. Next, 10 μL diluted compounds from the intermediate plates were added to each test plate (three WT and three G2019S plates per compound plate for a total of 12 assay plates). The plates were incubated for 24 hours at 37° C.
(§8) All assay plates and all Nano-Glo Dual-Luciferase Reporter Assay System components (except for the DLR substrate) were equilibrated to room temperature. Next, the luciferase buffer was mixed with the lyophilized amber bottle until fully dissolved, and 75 μL of the luciferase mixture was added to each well of each assay plate. The assay plates were incubated for 10 minutes at room temperature with shaking for at least 5 minutes, and then read on a plate reader.
(§9) Developing Plates and Analyzing Data. One milliliter of DLR substrate and 1 mL LgBiT Protein were added to the Stop and Glo buffer, and 75 μL of the mixture was added to each well of each plate. Optically clear seals were added to each plate and each plate was incubated for 20 minutes with shaking for at least 10 minutes, and then read on a plate reader. […]

G2019S LRRK2 = target: T2, G2019S LRRK2 (Homo sapiens, UniProt Q5S007, G2019S); assay: LRRK2 degradation assay, HiBit-tagged G2019S LRRK2 expressed from plasmid in HEK293 cells (Nano-Glo Dual-Luciferase); format: cell-based; details: HiBit-tagged G2019S LRRK2 in HEK293 cells, 24 hours
T2 construct: expressed in transfected cells; host or cells: HEK293 (ATCC CRL-1573), transient transfection, mammalian expression vector with ubiquitin promoter
Text: as §1, §2, §3, §4, §5, §6, §7, §8, §9

T1 sequence (Q5S007 whole entry): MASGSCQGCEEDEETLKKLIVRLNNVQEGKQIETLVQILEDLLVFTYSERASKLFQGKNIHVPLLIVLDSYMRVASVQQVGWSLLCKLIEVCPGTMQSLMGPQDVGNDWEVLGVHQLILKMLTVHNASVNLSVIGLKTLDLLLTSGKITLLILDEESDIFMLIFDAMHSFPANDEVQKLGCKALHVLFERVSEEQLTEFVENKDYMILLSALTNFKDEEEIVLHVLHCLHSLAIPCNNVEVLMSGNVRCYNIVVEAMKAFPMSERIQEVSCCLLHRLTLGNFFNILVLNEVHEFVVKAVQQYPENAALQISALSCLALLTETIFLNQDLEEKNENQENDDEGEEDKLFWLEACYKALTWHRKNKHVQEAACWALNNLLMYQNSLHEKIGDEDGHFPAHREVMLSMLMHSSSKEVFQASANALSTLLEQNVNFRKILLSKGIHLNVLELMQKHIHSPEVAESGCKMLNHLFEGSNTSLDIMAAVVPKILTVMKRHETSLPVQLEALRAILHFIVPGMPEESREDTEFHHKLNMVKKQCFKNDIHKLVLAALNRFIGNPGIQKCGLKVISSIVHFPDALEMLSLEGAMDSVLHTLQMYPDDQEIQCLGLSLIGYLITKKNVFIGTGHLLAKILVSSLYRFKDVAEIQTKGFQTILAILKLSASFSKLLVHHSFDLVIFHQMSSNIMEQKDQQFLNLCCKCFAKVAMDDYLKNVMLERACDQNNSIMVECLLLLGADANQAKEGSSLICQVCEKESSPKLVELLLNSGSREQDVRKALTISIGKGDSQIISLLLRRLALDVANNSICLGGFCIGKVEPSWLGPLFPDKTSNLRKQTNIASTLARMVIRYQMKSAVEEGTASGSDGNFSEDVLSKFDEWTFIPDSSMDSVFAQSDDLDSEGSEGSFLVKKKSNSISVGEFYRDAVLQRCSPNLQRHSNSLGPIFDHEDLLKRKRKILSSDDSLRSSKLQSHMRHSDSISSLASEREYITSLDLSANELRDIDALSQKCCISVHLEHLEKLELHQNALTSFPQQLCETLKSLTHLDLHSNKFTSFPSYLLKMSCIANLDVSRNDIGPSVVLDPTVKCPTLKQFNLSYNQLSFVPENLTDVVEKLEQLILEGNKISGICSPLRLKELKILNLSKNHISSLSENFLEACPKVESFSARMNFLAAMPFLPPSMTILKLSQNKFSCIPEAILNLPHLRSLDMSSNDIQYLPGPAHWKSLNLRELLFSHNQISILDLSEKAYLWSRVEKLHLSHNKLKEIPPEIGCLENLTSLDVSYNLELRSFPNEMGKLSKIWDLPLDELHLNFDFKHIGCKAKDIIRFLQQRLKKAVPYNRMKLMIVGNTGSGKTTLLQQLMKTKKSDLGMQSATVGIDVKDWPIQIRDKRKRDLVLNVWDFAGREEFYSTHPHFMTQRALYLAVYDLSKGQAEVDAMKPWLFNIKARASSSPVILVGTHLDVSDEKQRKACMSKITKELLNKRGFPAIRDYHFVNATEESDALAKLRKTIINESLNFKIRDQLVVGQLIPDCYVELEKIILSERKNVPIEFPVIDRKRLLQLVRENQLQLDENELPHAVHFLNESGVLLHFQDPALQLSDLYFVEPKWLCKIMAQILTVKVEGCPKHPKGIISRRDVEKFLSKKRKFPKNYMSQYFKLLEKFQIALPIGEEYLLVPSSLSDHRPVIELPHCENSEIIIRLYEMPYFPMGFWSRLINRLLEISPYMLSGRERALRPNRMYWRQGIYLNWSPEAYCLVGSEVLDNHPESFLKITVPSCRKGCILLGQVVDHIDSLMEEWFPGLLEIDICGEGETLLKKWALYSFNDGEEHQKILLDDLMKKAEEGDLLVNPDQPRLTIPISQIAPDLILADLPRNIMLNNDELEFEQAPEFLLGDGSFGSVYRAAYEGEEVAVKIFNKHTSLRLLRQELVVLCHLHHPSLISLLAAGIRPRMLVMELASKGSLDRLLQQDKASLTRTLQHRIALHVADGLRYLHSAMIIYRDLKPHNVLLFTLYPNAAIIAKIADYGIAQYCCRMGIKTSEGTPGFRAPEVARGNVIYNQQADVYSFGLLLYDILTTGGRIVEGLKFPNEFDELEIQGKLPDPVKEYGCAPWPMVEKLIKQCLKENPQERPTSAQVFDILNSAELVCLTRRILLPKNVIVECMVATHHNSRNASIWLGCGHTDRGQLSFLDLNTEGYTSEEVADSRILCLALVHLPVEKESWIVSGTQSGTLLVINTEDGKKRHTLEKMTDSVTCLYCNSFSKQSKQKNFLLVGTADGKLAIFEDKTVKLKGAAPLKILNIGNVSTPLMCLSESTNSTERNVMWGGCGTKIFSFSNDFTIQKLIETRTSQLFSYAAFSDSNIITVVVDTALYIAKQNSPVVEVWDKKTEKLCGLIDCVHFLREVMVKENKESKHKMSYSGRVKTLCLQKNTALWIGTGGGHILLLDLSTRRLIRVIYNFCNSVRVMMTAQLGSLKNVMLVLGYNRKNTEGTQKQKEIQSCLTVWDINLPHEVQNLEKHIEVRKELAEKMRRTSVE
T2 sequence (Q5S007 whole entry G2019S): as the sequence (Q5S007 whole entry) above, with G2019S counted along it

Row | Structure (SMILES) | Dmax (wildtype LRRK2) [%] | DC50 (wildtype LRRK2) [nM] | DC50 (G2019S LRRK2) [nM] | Dmax (G2019S LRRK2) [%]
1 | C[C@H]1CN(c2cc(-c3n[nH]c4cc(F)c(OC5(C)CC5)cc34)ncn2)CCN1CC1CCN(CC2CCN(c3ccc4c(c3)C(=O)N(C3CCC(=O)NC3=O)C4=O)CC2)CC1 (stereo partly drawn) [Compound 71, 2-(2,6-dioxopiperidin-3-yl)-5-{4-[(4-{[(2S)-4-{6-[6-fluoro-5-(1-methylcyclopropoxy)-1H-indazol-3-yl]pyrimidin-4-yl}-2-methylpiperazin-1-yl]methyl}piperidin-1-yl)methyl]piperidin-1-yl}-2,3-dihydro-1H-isoindole-1,3-dione] | 50 to 70 | < 10 | < 10 | < 50
2 | C[C@H]1CN(c2cc(-c3n[nH]c4ccc(OC5CC5)cc34)ncn2)CCN1CC1CCN(CC2CCN(c3ccc4c(c3)C(=O)N(C3CCC(=O)NC3=O)C4=O)CC2)CC1 (stereo partly drawn) [Compound 72, 5-{4-[(4-{[(2S)-4-[6-(5-cyclopropoxy-1H-indazol-3-yl)pyrimidin-4-yl]-2-methylpiperazin-1-yl]methyl}piperidin-1-yl)methyl]piperidin-1-yl}-2-(2,6-dioxopiperidin-3-yl)-2,3-dihydro-1H-isoindole-1,3-dione] | 50 to 70 | 10 to 50 | 10 to 50 | 50 to 70
3 | C[C@H]1CN(c2cc(-c3n[nH]c4ccc(OC5(C)CC5)cc34)ncn2)CCN1CC1CCN(CC2CCN(c3cc4c(cc3F)C(=O)N(C3CCC(=O)NC3=O)C4=O)CC2)CC1 (stereo partly drawn) [Compound 73, 2-(2,6-dioxo-3-piperidyl)-5-fluoro-6-[4-[[4-[[(2S)-2-methyl-4-[6-[5-(1-methylcyclopropoxy)-2H-indazol-3-yl]pyrimidin-4-yl]piperazin-1-yl]methyl]-1-piperidyl]methyl]-1-piperidyl]isoindoline-1,3-dione] | < 50 | < 10 | < 10 | < 50
4 | CC1(Oc2ccc3[nH]nc(-c4cc(N5C[C@@H]6[C@H](CN7CCN(CC8CCN(c9ccc%10c(c9)C(=O)N(C9CCC(=O)NC9=O)C%10=O)CC8)CC7)[C@@H]6C5)ncn4)c3c2)CC1 (stereo partly drawn) [Compound 74, 2-(2,6-dioxo-3-piperidyl)-5-[4-[[4-[[(r, 5s, 6s)-3-[6-[5-(1-methylcyclopropoxy)-1H-indazol-3-yl]pyrimidin-4-yl]-3-azabicyclo[3.1.0]hexan-6-yl]methyl]piperazin-1-yl]methyl]-1-piperidyl]isoindoline-1,3-dione] | 50 to 70 | 50 to 100 | 50 to 100 | < 50
5 | CC1(Oc2ccc3[nH]nc(-c4cc(N5C[C@@H]6[C@@H](CN7CCN(CC8CCN(c9ccc%10c(c9)C(=O)N(C9CCC(=O)NC9=O)C%10=O)CC8)CC7)[C@@H]6C5)ncn4)c3c2)CC1 (stereo partly drawn) [Compound 75, 2-(2,6-dioxopiperidin-3-yl)-5-{4-[(4-{[(1r,5s,6s)-3-{6-[5-(1-methylcyclopropoxy)-1H-indazol-3-yl]pyrimidin-4-yl}-3-azabicyclo[3.1.0]hexan-6-yl]methyl}piperazin-1-yl)methyl]piperidin-1-yl}-2,3-dihydro-1H-isoindole-1,3-dione] | ≥ 70 | < 10 | < 10 | ≥ 70
6 | CC1(Oc2ccc3[nH]nc(-c4cc(N5CCN(CC6CCN(CC7CCN(c8ccc9c(c8)C(=O)N(C8CCC(=O)NC8=O)C9=O)CC7)CC6)CC5)ncn4)c3c2)CC1 (stereo not drawn) [Compound 76, 2-(2,6-dioxo-3-piperidyl)-5-[4-[[4-[[4-[6-[5-(1-methylcyclopropoxy)-1H-indazol-3-yl]pyrimidin-4-yl]piperazin-1-yl]methyl]-1-piperidyl]methyl]-1-piperidyl]isoindoline-1,3-dione] | < 50 | < 10 | < 10 | 50 to 70
7 | CC1(Oc2ccc3[nH]nc(-c4ccnc(N5CCC(CN6CCN(CC7CCN(c8ccc9c(c8)C(=O)N(C8CCC(=O)NC8=O)C9=O)CC7)CC6)CC5)c4)c3c2)CC1 (stereo not drawn) [Compound 78, 2-(2,6-dioxo-3-piperidyl)-5-[4-[[4-[[1-[4-[5-(1-methylcyclopropoxy)-1H-indazol-3-yl]-2-pyridyl]-4-piperidyl]methyl]piperazin-1-yl]methyl]-1-piperidyl]isoindoline-1,3-dione] | 50 to 70 | < 10 | < 10 | 50 to 70
8 | CC1(Oc2ccc3[nH]nc(-c4cc(N5CCN(CC6(F)CCN(CC7CCN(c8ccc9c(c8)C(=O)N(C8CCC(=O)NC8=O)C9=O)CC7)CC6)CC5)ncn4)c3c2)CC1 (stereo not drawn) [Compound 79, 2-(2,6-dioxo-3-piperidyl)-5-[4-[[4-fluoro-4-[[4-[6-[5-(1-methylcyclopropoxy)-1H-indazol-3-yl]pyrimidin-4-yl]piperazin-1-yl]methyl]-1-piperidyl]methyl]-1-piperidyl]isoindoline-1,3-dione] | < 50 | < 10 | < 10 | 50 to 70
9 | CC1(Oc2ccc3[nH]nc(-c4ccnc(N5CCN(CC6(F)CCN(CC7CCN(c8ccc9c(c8)C(=O)N(C8CCC(=O)NC8=O)C9=O)CC7)CC6)CC5)c4)c3c2)CC1 (stereo not drawn) [Compound 80, 2-(2,6-dioxo-3-piperidyl)-5-[4-[[4-fluoro-4-[[4-[4-[5-(1-methylcyclopropoxy)-1H-indazol-3-yl]-2-pyridyl]piperazin-1-yl]methyl]-1-piperidyl]methyl]-1-piperidyl]isoindoline-1,3-dione] | < 50 | < 10 | < 10 | 50 to 70
10 | C[C@H]1CN(c2cc(-c3n[nH]c4ccc(OC5(C)CC5)cc34)ccn2)CCN1CC1(F)CCN(CC2CCN(c3ccc4c(c3)C(=O)N(C3CCC(=O)NC3=O)C4=O)CC2)CC1 (stereo partly drawn) [Compound 81, 2-(2,6-dioxopiperidin-3-yl)-5-{4-[(4-fluoro-4-{[(2S)-2-methyl-4-{4-[5-(1-methylcyclopropoxy)-1H-indazol-3-yl]pyridin-2-yl}piperazin-1-yl]methyl}piperidin-1-yl)methyl]piperidin-1-yl}-2,3-dihydro-1H-isoindole-1,3-dione] | < 50 | < 10 | < 10 | < 50
11 | CC1(Oc2ccc3[nH]nc(-c4ccnc(N5CCC(CN6CCC(F)(CN7CCN(c8ccc9c(c8)C(=O)N(C8CCC(=O)NC8=O)C9=O)CC7)CC6)CC5)c4)c3c2)CC1 (stereo not drawn) [Compound 82, 2-(2,6-dioxo-3-piperidyl)-5-[4-[[4-fluoro-1-[[1-[4-[5-(1-methylcyclopropoxy)-1H-indazol-3-yl]-2-pyridyl]-4-piperidyl]methyl]-4-piperidyl]methyl]piperazin-1-yl]isoindoline-1,3-dione] | 50 to 70 | 10 to 50 | 10 to 50 | 50 to 70
12 | CC1(Oc2ccc3[nH]nc(-c4cc(N5CCC(CN6CCC(F)(CN7CCN(c8ccc9c(c8)C(=O)N(C8CCC(=O)NC8=O)C9=O)CC7)CC6)CC5)ncn4)c3c2)CC1 (stereo not drawn) [Compound 83, 2-(2,6-dioxo-3-piperidyl)-5-[4-[[4-fluoro-1-[[1-[6-[5-(1-methylcyclopropoxy)-1H-indazol-3-yl]pyrimidin-4-yl]-4-piperidyl]methyl]-4-piperidyl]methyl]piperazin-1-yl]isoindoline-1,3-dione] | 50 to 70 | < 10 | < 10 | ≥ 70
